The subject of assay [1] is ADP-induced aggregation in rabbit platelets. Nature of the assay: Inhibition of ADP-induced platelet aggregation in rabbit platelet rich plasma. As to conditions: Oryctolagus cuniculus, read-out: Inhibition rate of ADP-induced aggregation; for inhibition at 100 µM (stock): Concentration of the test compound solution 10^-4 mole; for inhibition at 10 µM (stock): Concentration of the test compound solution 10^-5 mole. In kind it is cell-based. The procedure, abridged: (§1)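 Citrated rabbit PRP adjusted to 600,000 platelets/μl with PPP, preincubated with test compound 1 min at 37° C, then challenged with ADP (solution prepared at 7.5×10^-5 M) or collagen (solution at 200 μg/ml). Aggregation followed by light transmittance; % inhibition relative to control aggregation rate.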

The test system of assay [2] is collagen-induced aggregation in rabbit platelets. Nature of the assay: Inhibition of collagen-induced platelet aggregation in rabbit platelet rich plasma. In kind it is cell-based. Particulars: Oryctolagus cuniculus, read-out: Inhibition rate of collagen-induced aggregation; for inhibition at 100 µM (stock): Concentration of the test compound solution 10^-4 mole; for inhibition at 10 µM (stock): Concentration of the test compound solution 10^-5 mole. The procedure, abridged:
as §1

A short description of assay [3]: Change of blood pressure, intravenous administration, anesthetized dog. In kind it is in vivo. The arrangement: unit not given here. As to conditions: femoral artery. Summed up:
(§2)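 Pentobarbital-anesthetized (30 mg/kg i.v.), heparinized, thoracotomized dogs of either sex, 8-13 kg, under forced breathing; compound given via femoral vein. Coronary sinus outflow measured by electromagnetic flowmeter in an extracorporeal venous circuit to the carotid; blood pressure recorded from femoral artery.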

Another assay deals with coronary artery. The experiment in a line: Increased amount of the blood flow in coronary artery, intravenous administration, anesthetized dog. In kind it is in vivo. The procedure, abridged:
as §2

By inhibition is commonly meant the change of the read-out against control, counted positive when it falls. As for `COC(=O)C1=C(C)NC(C)=C(C(=O)OCCCOc2ccc3[nH]c(=O)ccc3c2)C1c1cccc([N+](=O)[O-])c1` (stereo not drawn) [Compound 8, 6-{3-[2,6-Dimethyl-5-methoxycarbonyl-4-(3-nitrophenyl)-1,4-dihydropyridin-3-carboxy]-propoxy}carbostyril], the inhibition at 100 µM (stock) in assay [1] came out at 76%; in assay [2], 99%. Besides, the inhibition at 10 µM (stock) was determined as 10% in assay [1] and 27% in assay [2]. Further, the “Change of blood pressure” value in assay [3] (30 micrograms/kg) is recorded as -3; in assay [3] (100 micrograms/kg), -16; in assay [3] (300 micrograms/kg), -33. Also, the “Increased amount of the blood flow in coronary artery” value (“Increased amount of the blood flow” below) with coronary artery (10 micrograms/kg) was found to be 1 mL/min; in the assay on coronary artery (30 micrograms/kg), 2 mL/min; in the assay with coronary artery (100 micrograms/kg), 12 mL/min; in the assay with coronary artery (300 micrograms/kg), 56 mL/min.

`COC(=O)C1=C(C)NC(C)=C(C(=O)OCCCOc2ccc(O)c3c2CCC(=O)N3)C1c1cccc([N+](=O)[O-])c1` (stereo not drawn) [Compound 7, 5-{3-[2,6-Dimethyl-5-methoxycarbonyl-4-(3-nitrophenyl)-1,4-dihydropyridin-3-carboxy]-propoxy}-8-hydroxy-3,4-dihydrocarbostyril]: the figures for the inhibition at 100 µM (stock) in assay [1] and in assay [2] were 14% and 15%, respectively. Also, the inhibition at 10 µM (stock) in assay [1] and in assay [2] was 3% each time. The “Change of blood pressure” value in assay [3] (10 micrograms/kg) is -2; in assay [3] (30 micrograms/kg) it was -4; in assay [3] (100 micrograms/kg), -9; in assay [3] (300 micrograms/kg), -14. Also, the “Increased amount of the blood flow” value in the assay on coronary artery (30 micrograms/kg) came to 1 mL/min; in the assay with coronary artery (100 micrograms/kg) it was 15 mL/min; with coronary artery (300 micrograms/kg) it was 47 mL/min.

`COC(=O)C1=C(C)NC(C)=C(C(=O)OCCCOc2cccc3c2NC(=O)CC3)C1c1cccc([N+](=O)[O-])c1` (stereo not drawn) [Compound 9, 8-{3-[2,6-Dimethyl-5-methoxycarbonyl-4-(3-nitrophenyl)-1,4-dihydropyridin-3-carboxy]-propoxy}-3,4-dihydrocarbostyril]: the inhibition at 100 µM (stock) in assay [1] is 12%; in assay [2] it was 16%. The inhibition at 10 µM (stock) in assay [1] came to 7%; in assay [2], 2%. Besides, the “Change of blood pressure” value in assay [3] (3 micrograms/kg) was -14; in assay [3] (10 micrograms/kg), -28; in assay [3] (30 micrograms/kg) it was -36; in assay [3] (100 micrograms/kg), -41; in assay [3] (300 micrograms/kg) it was -36. Also, the “Increased amount of the blood flow” value was determined as 4 mL/min with coronary artery (3 micrograms/kg); 17 mL/min with coronary artery (10 micrograms/kg); 47 mL/min with coronary artery (30 micrograms/kg); 66 mL/min with coronary artery (100 micrograms/kg); 81 mL/min with coronary artery (300 micrograms/kg).

For the origin of these results see patent US4564619A, “Carbostyril derivative” (Otsuka Pharmaceutical Co., Ltd., priority 1982, dated 1986).
